Tests used:
[1] = system: IκBα and phosphorylated IKKα/β; assay: Immunoblot of IκBα and phosphorylated IKKα/β in TNFα-treated HepG2 cells; type: cell-based; conditions: TNFα 20 ng/mL 30 minutes
Source text: IκBα and phosphorylated IKKα/β in the cells were then detected by WB.
In addition, HepG2 cells were also applied in the experiment. […] IκBα in the cells was then detected by WB.

[2] = system: IκBα; assay: Immunoblot of IκBα in MEF cells; type: cell-based; conditions: MEF cells expressing Nur77
Source text: (§1) The above results were also confirmed by using MEF cells and Nur77−/−MEF cells (i.e., MEF cells not expressing Nur77). […] Subsequently, IκBα in the cells was detected by WB.

[3] = system: IκBα; assay: Immunoblot of IκBα in Nur77−/−MEF cells; type: cell-based
Source text: as §1

[4] = system: mTOR signaling pathway; assay: Immunoblot of p-mTOR, p-P70S6K, p-S6 in TNFα-treated starved MDA-MB-231 cells; type: cell-based
[5] = system: BT474, ZR-75-1, BT549, HCC1937, HS578T, MCF-7, and T47D; assay: Inhibition rate on seven breast cancer cells; type: cell-based; conditions: various breast cancer cells, FIG. 11C
[6] = system: breast cancer; assay: PYVT mice under LFD or HFD feeding, intragastric administration; type: in vivo, WT mice and PYVT mice
Source text: The above conclusions can be reflected in the size of tumor tissue and the change of body weight of mice.

[7] = system: tumors; assay: Tumor inhibition in wild type PYVT mice; type: in vivo; conditions: YXY101 5 mg/kg or XS0284 10 mg/kg intragastric, two weeks
[8] = system: tumors; assay: Tumor inhibition in Nur77-knocked-out PYVT mice; type: in vivo, Nur77-knocked-out type; conditions: Nur77-deficient; YXY101 5 mg/kg or XS0284 10 mg/kg intragastric, two weeks
[9] = Acute toxicity model mice, histopathology; type: in vivo
Source text: The tissue morphologies of the heart, liver, small intestine, white fat and kidney were observed by Histopathological method.

[10] = single intragastric injection 200 mg/kg
[11] = single intraperitoneal injection 20 mg/kg

Cc1c(O)c(O)cc2c1C(S(=O)(=O)[O-])C=C1[C@@]2(C)CC[C@@]2(C)[C@@H]3C[C@](C)(C(=O)O)CC[C@]3(C)CC[C@]12C.[Na+] (stereo partly drawn) [XS0284]
TNFα-induced degradation of IκBα [1]: capable of inhibiting TNFα-induced degradation of IκBα
TNFα-induced degradation of IκBα [2]: able to inhibit TNFα-induced degradation of IκBα
TNFα-induced degradation of IκBα [3]: lost the ability to inhibit IκBα degradation
inhibitory effect on P-mTOR, P-p70S6K and P—S6 [4]: strong inhibitory effect
inhibitory effects on proliferation compared with YXY101 [5]: close or even stronger than that of YXY101
inhibition effect on breast cancer compared with YXY101 ([6]; high-fat feeding conditions): stronger than that of YXY101
inhibitory effect on breast cancer compared with YXY101 ([6]; low-fat feeding conditions): close to that of YXY101
development of breast cancer ([6]; low-fat or high-fat feeding conditions): can significantly inhibit the development of breast cancer
tumor inhibition (tumor tissue size) [7]: effective in inhibiting tumors in wild-type mice
tumor inhibition (tumor tissue size) [8]: neither of the two compounds could exert an inhibitory effect
toxic effect compared with YXY101 ([9]; intragastric injection group): weaker toxic effect on the liver and small intestine than YXY101
toxicity compared with YXY101 ([9]; intraperitoneal injection group): less toxicity to kidney and adipose than YXY101
acute toxicity to animals compared with YXY101 ([9]; overall): less acute toxicity to animals than YXY101
adipose tissue morphology [9, 10]: the adipose tissue cells had clear boundaries, and were neatly arranged, and the fiber breakage was reduced
heart tissue morphology [9, 10]: relatively clear boundaries, the myocardial fibers were arranged relatively neatly and had obvious boundaries
liver tissue morphology [9, 10]: the hepatocytes in the liver tissue had obvious boundaries and clear structure
small intestine tissue morphology [9, 10]: the intestinal tissue had clear boundaries, the cells were plump, the intestinal villi were neatly arranged and had obvious boundaries
adipose tissue morphology [9, 11]: the adipose tissue cells had clear boundaries and were arranged neatly, the fiber breakage was reduced
heart tissue morphology [9, 11]: relatively clear boundaries, the myocardial fibers were relatively neatly arranged and had obvious boundaries
kidney tissue morphology [9, 11]: the kidney tissue had clear glomerular boundaries, the cells were full, and there was a small amount of inflammatory cell infiltration
liver tissue morphology [9, 11]: the hepatocytes in the liver tissue had obvious boundaries and clear structure
